Tests used:
Assay type in all cases: cell-based, bovine
[1] = tested on: mammary epithelial cells (MECs); test: Cell viability and morphology of MECs under oleic acid with or without LXRa
Experimental: 1. Oleic acid treatment: Oleic acid was added to the induction medium at […] final concentration. Treatment was carried for 1 up to 7 days.
2. […] LXRa was added into the media with or without Oleic acid. Two LXR agonists were tested: GW3965 (LXR1, SIGMA) and T0901317 (LXR2, SIGMA), each at a concentration of luM/ml for at least overnight (ON) incubation. The OA was added after cells reached the confluency of at least 80%.
The analysis was done for the presence of 360 μM OA or 1100 μM OA with or without LXRa (TO901317).

[2] = tested on: mammary epithelial cells (MECs); test: Intracellular triglycerides (TGs) in MECs, plate assay
Experimental: 1. Oleic acid treatment: Oleic acid was added to the induction medium at […] final concentration. Treatment was carried for 1 up to 7 days. 2. […] LXRa was added into the media with or without Oleic acid. Two LXR agonists were tested: GW3965 (LXR1, SIGMA) and T0901317 (LXR2, SIGMA), each at a concentration of luM/ml for at least overnight (ON) incubation. The OA was added after cells reached the confluency of at least 80%. After treatment, cells were harvested with trypsin (0.05%), washed with 0.9% (w/v) NaCl and stored at −20° C. until lipid extraction. Total lipids were extracted from the intact cells by NP-40 and from media by cold-extraction procedure developed by Folch et al. with few adaptations. Briefly, a 5-ml aliquot of methanol: chloroform solution (2:1, v/v) was added to each sample. After incubation at room temperature, 1 ml of double-distilled water was added. After overnight incubation at 4° C., the upper phase was discarded, and the lower phase was filtered through a Pasteur pipette with glass wool. Samples were then dried under a nitrogen stream at 65° C., diluted in 100 μl 0.5% NP-40. Of note, lipid metabolites are measured by Cobas measurement, which is a parameter for lipid activity but measures also glycerol, the plate assay on the other hand measures TGs specifically while eliminating the glycerol background. After treatment, medium was collected and centrifuged at 500 g for 10 min. The supernatant was transferred to a fresh tube and kept at 4° C. until analysis. Medium triglyceride content was quantified with a Triglyceride Quantification Kit (lipase assay Abcam, Cambridge, UK). Quantification was performed against external standard curves and expressed as μg/10∧6 live cells. Live cell number was determined with a hemocytometer after Trypan blue staining.

[3] = tested on: mammary epithelial cells (MECs); test: Lipids / lipid metabolites released to the culture medium of MECs; conditions: 1 μM/ml LXRa with OA
Experimental: Total lipids were extracted from the intact cells by NP-40 and from media by cold-extraction procedure developed by Folch et al. with few adaptations. Briefly, a 5-ml aliquot of methanol: chloroform solution (2:1, v/v) was added to each sample. After incubation at room temperature, 1 ml of double-distilled water was added. After overnight incubation at 4° C., the upper phase was discarded, and the lower phase was filtered through a Pasteur pipette with glass wool. Samples were then dried under a nitrogen stream at 65° C., diluted in 100 μl 0.5% NP-40. Of note, lipid metabolites are measured by Cobas measurement, which is a parameter for lipid activity but measures also glycerol, the plate assay on the other hand measures TGs specifically while eliminating the glycerol background. After treatment, medium was collected and centrifuged at 500 g for 10 min. The supernatant was transferred to a fresh tube and kept at 4° C. until analysis. Medium triglyceride content was quantified with a Triglyceride Quantification Kit (lipase assay Abcam, Cambridge, UK). Quantification was performed against external standard curves and expressed as μg/10∧6 live cells. Live cell number was determined with a hemocytometer after Trypan blue staining.

[4] = tested on: LXR downstream genes: SREBP1, FASN, SLC25A1 and SQLE; test: RT-PCR expression of LXR downstream lipid metabolism genes in MECs after overnight LXR agonist incubation; conditions: OA incubation of MECs
Experimental: A primary culture of MEC was isolated from mammary biopsies. Briefly, udder tissue was collected from lactating cows in a commercial slaughterhouse and immediately submerged in ice-cold growth medium, DMEM-F12, with 1000 U/ml penicillin, 1 mg/ml streptomycin, 2.5 μg/ml amphotericin B mixture, and 0.02 mg/ml heparin supplementation to prevent cell clotting after digestion. Study protocols followed the regulations of the Israeli Ministry of Health. Cells were grown in plastic culture dishes with DMEM/F12 supplemented with 10% (w/v) FBS, 100 U/ml penicillin, 100 μg/ml streptomycin, 0.25 μg/ml amphotericin B supplemented with insulin (1 μg/ml), hydrocortisone (0.5 μg/ml) and prolactin (1 μg/ml). 2. […] LXRa was added into the media with or without Oleic acid. Two LXR agonists were tested: GW3965 (LXR1, SIGMA) and T0901317 (LXR2, SIGMA), each at a concentration of luM/ml for at least overnight (ON) incubation. The OA was added after cells reached the confluency of at least 80%. Cells were harvested using the […] reagent and pellet was collected by centrifugation of 3 min in 300 rcf. RNA was extracted from 1×10^6 cells using NzytechTM total RNA isolation kit (MB13402). cDNA was prepared using SensiFastTM cDNA kit (0.5μgr RNA/20 μl reaction mix). RT-PCR was done with the following primers by using SensiFastTM RT-PCR kit with 1.25-20 ng cDNA/well. [table] […]

Row | SMILES | Effect of LXRa on oleic acid toxicity (cells viability and morphology) ([1]; LXRa 1 μM/ml TO901317, 360 μM or 1100 μM OA) | Higher intracellular TGs levels vs OA only ([2]; 360 μM OA treatment, LXRa 1 μl/ml) [%] | Delta triglycerides (TGs) levels inside cells with vs without LXRa ([2]; FIG. 3) | Effect of LXR agonist on intracellular TGs ([2]; OA concentrations higher than 360 μM) | Lipids release to the medium [3] | Effect on LXR dependent gene expression of lipid metabolism [4] | Effect on cells viability ([1]; oleic acid above 300 μM or longer than one day)
1 | O=S(=O)(c1ccccc1)N(CC(F)(F)F)c1ccc(C(O)(C(F)(F)F)C(F)(F)F)cc1 [LXRa, T0901317] | ameliorates the negative effect | 60 | similar | not observed | release lipids to the medium | – | –
2 | CCCCCCCC/C=C\CCCCCCCC(=O)O [Oleic acid, oleic acid] | – | – | – | – | – | no effect | negative effect
